In assay [1] the test system is neuroblastoma cell line, SH-SY5Y. Description: Proliferation of neuroblastoma cell line SH-SY5Y in vitro. Format: cell-based, human. The method, then:
FIG. 1. […] The neuroblastoma cell line, SH-SY5Y, was exposed to Compound 100 for 4 or 7 days at concentrations of 1 μM (squares), 5 μM (triangles), 10 μM (short dashed line), 20 μM (diamonds), 50 μM (long dashed line) or vehicle only (circles).
FIG. 2. […] The neuroblastoma cell line, SH-SY5Y, was exposed to 5 μM Compound 100 (squares), 25 μM ATRA (circles), the combination of 5 μM Compound 100 and 25 μM ATRA (dashed line) or vehicle only (black line) for 4 or 7 days. […]
The human neuroblastoma cell line SH-SY5Y is available from the European Collection of Cell Cultures, Health Protection Agency, Porton Down SP40JG Salisbury, Wiltshire UK, as ECACC No. 94030304.
The neuroblastoma cell line, SHSY5Y, was exposed to the cantharidin analog Compound 100 for 4 or 7 days at concentrations of 1, 5, 10, 20 and 50 μM.
Subsequently, SH-SY5Y cells were exposed to Compound 100 at a concentration of 5 μM, ATRA at 25 μM or the combination of the two drugs at the aforementioned doses for 4 or 7 days. […]

The subject of assay [2] is medulloblastoma cell line, DAOY. Description: Proliferation of medulloblastoma cell line DAOY in vitro. Format: cell-based, human. The method, then:
FIG. 4. […] The medulloblastoma cell line, DAOY, was exposed to 20 μM Compound 100 (squares), 5 μM Compound 100 (triangles), 1 μM Compound 100 (x's) or vehicle only (diamonds) for 3 days.
FIG. 5. […] The medulloblastoma cell line, DAOY, was exposed to 50 μM ATRA (squares), 20 μM ATRA (triangles), 5 μM ATRA (X's) or vehicle only (diamonds) for 3 days.
FIG. 6. […] The medulloblastoma cell line, DAOY, was exposed to 2 mM valproic acid (squares), 1 mM valproic acid (triangles), 0.5 mM valproic acid (X's) or vehicle only (diamonds) for 3 days.
The human medulloblastoma cell line DAOY is available from the American Type Culture Collection (ATCC), P.O. Box 1549, Manassas, Va., 20108, as ATCC No. HTB-186.
The medulloblastoma cell line, DAOY, was exposed to the cantharidin analog, Compound 100 at concentrations of 1 μM, 5 μM and 20 μM and evaluated for cellular proliferation over the course of three days. […] Therefore, Compound 100 even at low concentration is capable of preventing cellular proliferation.
To confirm these observations, cultured DAOY cells were treated with 50 μM, 20 μM, 5 μM or vehicle only for three days and examined for cellular proliferation. […] Consequently, because it has been determined that proliferation of medulloblastoma cells is inhibited by Compound 100, ATRA and valproic acid as single agent, it is reasonable to expect that the combination of compound 100 with each of these compounds or a regimen of all three agents may be effective in the treatment of medulloblastoma.
The medulloblastoma cell line, DAOY, was exposed to the HDAC inhibitor, Compound 205 at 10 μM, ATRA at 50 μM, and the compound 205 at 10 μM combined with ATRA at 50 μM, and evaluated for cellular proliferation over the course of seven days. […] (FIG. 8) Therefore, we have shown that Compound 205 is active against medulloblastoma cell line DAOY.

In assay [3] the test system is medulloblastoma cell line DAOY xenograft tumors. As to the kind of experiment: DAOY xenograft tumors in SCID mice. Format: in vivo. To be noted: 1.5 mg/kg daily intraperitoneally for 21 days, measured at days 7, 14 and 21 of treatment, vs vehicle (FIG. 7). The method, then: DAOY cells (5 million) were implanted subcutaneously in the flank of SCID mice (Day 0). After the xenografts reached a size of ˜130 cubic mm, treatment was instituted with vehicle alone (control), compound 100 (1.5 mg/kg), or compound 102 (1.5 mg/kg) daily intraperitoneally for 21 days (beginning at day 7). Xenograft masses were measured at days 7, 14 and 21 of treatment.

Assay [4] concerns human glioblastoma multiforme. To be noted: cited from earlier work.
Assay [5] relates to neuroblastoma cell line SHSY xenograft. As to the kind of experiment: SHSY xenograft in SCID mice. Type of assay: in vivo. To be noted: measured day 7 and day 14, vs vehicle (FIG. 9). Here is the method:
SHSY cells (5 million) were implanted subcutaneously in the flank of SCID mice. After the xenografts reached a size of ˜100 cubic mm, treatment was instituted with vehicle alone (control), compound 100 (1.5 mg/kg) or compound 205 (10 mg/kg) daily intraperitoneally for 14 days. Xenograft masses were measured day 7 and day 14 of treatment.
SHSY cells (5 million) were implanted subcutaneously in the flank of SCID mice. After the xenografts reached a size of ˜100 cubic mm, treatment was instituted with vehicle alone (control), Compound 100 (1.5 mg/kg) or Compound 205 (10 mg/kg) daily intraperitoneally for 14 days. Xenograft masses were measured day 7 and day 14 of treatment.

Assay [6] relates to medulloblastoma cell line, DAOY. The conditions noted are these: cited from earlier work.
In assay [7] the test system is neuroblastoma cell line, SH-SY5Y. The conditions noted are these: cited from earlier work.
For a further assay, the system named is neuroblastoma. To be noted: given for 6 months to high risk patients after chemotherapeutic, surgical and radiation treatments (Matthay et al., 1999); cited from earlier work.
Where [8] appears, read: compound 205 at 10 μM combined with ATRA at 50 μM, seven days (FIG. 8).

Structures are written as SMILES. “Also recorded” adds a separate entry of the source. Where two headings read alike, the source gives them in different places.

For the molecule `CN1CCN(C(=O)C2C(C(=O)O)[C@H]3CC[C@@H]2O3)CC1` (stereo partly shown) [Compound 100], the “inhibition of cellular proliferation” value in assay [1] (5 μM Compound 100 alone, 4 or 7 days (FIG. 2)) is given as “failed to significantly inhibit cellular proliferation”; in assay [1] (combination of 5 μM Compound 100 and 25 μM ATRA, day 4 and day 7 (FIG. 2)) it was “inhibits proliferation of neuroblastoma cells”; in assay [1] (combination of 5 μM Compound 100 and 25 μM ATRA, day 4 and day 7 (FIG. 2), listed as compound 100) it was “potentiated the extent of inhibition by ATRA”. Besides, the proliferation inhibition entry in assay [1] (10 μM ATRA and 10 μM Compound 100 (FIG. 3)) was “exhibited high levels of proliferation inhibition”; in assay [1] (2.5 mM valproic acid and 10 μM Compound 100 (FIG. 3)), “exhibited high levels of proliferation inhibition”; in assay [1] (2.5 mM valproic acid, 10 μM ATRA and 10 μM Compound 100 (FIG. 3)), “severely inhibits proliferation of neuroblastoma cells; also recorded: exhibited high levels of proliferation inhibition”. Besides, the proliferation result in assay [1] (10 μM Compound 100 alone (FIG. 3)) is “proliferation was greatly reduced”. Besides, the synergy in combinations result in assay [1] (10 μM Compound 100 with 10 μM ATRA, 2.5 mM valproic acid or both (FIG. 3)) was “synergistically enhanced the activity of ATRA, valproic acid and valproic acid in combination with ATRA”. The “inhibition of cell proliferation” value in assay [1] (Compound 100 at 1 μM and 5 μM, day 4, vs vehicle (FIG. 1)) is recorded as “little or no inhibition of cell proliferation”; in assay [1] (Compound 100 at the three higher doses (10, 20, 50 μM), day 4 (FIG. 1)), “Dose dependent inhibition”. In addition, the cell growth result in assay [1] (Compound 100 at 1 μM and 5 μM, day 7, vs vehicle (FIG. 1)) is recorded as “enhanced cell growth”. Moreover, the inhibition of proliferation result in assay [1] (Compound 100 at 1, 5, 10, 20, 50 μM for 4 or 7 days (FIG. 1 legend)) was “inhibits proliferation of neuroblastoma cells”. The growth inhibition result in assay [1] (Compound 100 at doses less than 50 μM, day 7 (FIG. 1)) was “escape of growth inhibition”. The cellular proliferation result in assay [1] (Compound 100 at low doses) is “slightly stimulates cellular proliferation”; in assay [4] (combination of ATRA with Compound 100, human glioblastoma multiforme (PCT/US2007/003095)) it was “highly effective in preventing cellular proliferation”. Further, the “rate of cellular proliferation” value in assay [2] (20 μM Compound 100, three days (FIG. 4, squares)) is recorded as “greatest decrease in cellular proliferation”; in assay [2] (Compound 100 at 1 μM, 5 μM and 20 μM, three days, vs vehicle (FIG. 4)) it was “inhibits proliferation of medulloblastoma cells; also recorded: decreased rates of cellular proliferation as compared to the control”. For the same molecule, the “proliferation of xenograft (xenograft mass)” value (shortened to “proliferation of xenograft”) is reported as “inhibits the proliferation of the medulloblastoma cell line DAOY xenograft tumors; also recorded: inhibit the proliferation of DAOY cells” in assay [3] and “inhibits the proliferation of the neuroblastoma cell line SHSY xenograft” in assay [5] (Compound 100 1.5 mg/kg daily intraperitoneally for 14 days, 1.5 mg/kg). Moreover, the “inhibition of human cancer cells in vitro” value in assay [4] (Compound 100 in combination with trichostatin A (PCT/US2007/003095)) and in assay [4] (Compound 100 in combination with valproic acid (PCT/US2007/003095)) was “better then would be expected from the combination of the agents alone” throughout.

Consider `O=C(CCCCCNC(=O)c1ccccc1S)Nc1cccnc1` [Compound 205], for which the “rate of cellular proliferation” value was “decreased rates of cellular proliferation as compared to the control; also recorded: inhibits proliferation of the medulloblastoma cell line DAOY” in assay [2] (Compound 205 at 10 μM alone, seven days, vs vehicle (FIG. 8)); “inhibits proliferation of the medulloblastoma cell line DAOY” in assay [2] (setting [8]); “marked decrease in the rate of cellular proliferation” in assay [2] (compound 205 at 10 μM combined with ATRA at 50 μM, seven days (FIG. 8), listed as compound 205). Further, the synergy in combination entry in assay [2] (setting [8]) is given as “synergistically active”. In addition, the “proliferation of xenograft” value in assay [5] (Compound 205 10 mg/kg daily intraperitoneally for 14 days, 10 mg/kg) is reported as “inhibits the proliferation of the neuroblastoma cell line SHSY xenograft”.

Turning to `CC1=C(/C=C/C(C)=C/C=C/C(C)=C/C(=O)O)C(C)(C)CCC1` [ATRA, all-trans retinoic acid, reference compound], the proliferation result in assay [1] (10 μM ATRA alone, day 4 (FIG. 3)) was “did not prevent proliferation”. Moreover, the “inhibition of cellular proliferation” value is recorded as “did not impair cellular proliferation until after day 4” in assay [1] (25 μM ATRA alone, 4 or 7 days (FIG. 2)) and “inhibits proliferation of medulloblastoma cells; also recorded: inhibited proliferation to varying degrees” in assay [2] (ATRA at 50 μM, 20 μM, 5 μM, three days (FIG. 5)). The “rate of cellular proliferation” value in assay [2] (ATRA at 50 μM alone, seven days, vs vehicle (FIG. 8)) is “decreased rates of cellular proliferation as compared to the control”. For the same molecule, the cellular proliferation entry in assay [6] (varying concentration of ATRA (Chang et al., 2007; Gumireddy et al., 2003)) is listed as “inhibits cellular proliferation”; in assay [7] (long-term treatment with ATRA, demonstrated previously), “can inhibit cellular proliferation”. The “cellular migration and invasion” value in assay [7] (short term treatment (1-3 days) with ATRA (Joshi et al 2006)) was “induced cellular migration and invasion”.

For the molecule `CCCC(CCC)C(=O)O` [valproic acid, reference compound], in assay [1] (2.5 mM valproic acid alone (FIG. 3)), the proliferation entry is reported as “proliferation was greatly reduced”. The inhibition of proliferation result in assay [1] (2.5 mM valproic acid and 10 μM ATRA (FIG. 3)) is on record as “exhibited inhibition of proliferation”; in assay [2] (valproic acid at 2 mM, 1 mM or 0.5 mM, three days (FIG. 6)), “inhibits proliferation of medulloblastoma cells; also recorded: inhibition of proliferation”. For the same molecule, the cell proliferation entry in assay [6] (0.6 mmol/L valproic acid, 21 days (Li, et al., 2005)) is “suppressed cell proliferation”; in assay [6] (1 mmol/L valproic acid, 10 days (Li, et al., 2005)), “suppressed cell proliferation”.

Turning to `CC(C)(C)OC(=O)N1CCN(C(=O)C2C(C(=O)O)[C@H]3CC[C@@H]2O3)CC1` (stereo partly shown) [Compound 102], the “proliferation of xenograft” value in assay [3] was “inhibits the proliferation of the medulloblastoma cell line DAOY xenograft tumors; also recorded: inhibit the proliferation of DAOY cells”.

On to `CC1=C(/C=C/C(C)=C/C=C/C(C)=C\C(=O)O)C(C)(C)CCC1` [13-cis-retinoic acid], for which the survival result with neuroblastoma is listed as “survival is improved significantly”.

These data come from US20090035292A1, “Use of phosphatases to treat neuroblastomas and medulloblastomas” (priority 2007, published 2009).
